Experimental data as given in PMC5301048, “Selection and early clinical evaluation of the brain‐penetrant 11β‐hydroxysteroid dehydrogenase type 1 (11β‐HSD1) inhibitor UE2343 (Xanamem™)” (British Journal of Pharmacology, 2017).
Where two headings read alike, the source gives them in different places.

Columns and labels:
[1] = Single ascending dose study, pharmacokinetics; format: in vivo; conditions: human; for half-life / Cmax / Tmax / CL renal: both sexes; for half-life / Cmax / Tmax: plasma; for Tmax: median (range); for CL renal: urine and plasma
Experimental: A double‐blind, randomized, placebo‐controlled single ascending dose study was carried out at Simbec Research Ltd, Merthyr Tydfil, UK. Each cohort consisted of six healthy male subjects and two females of non‐child bearing potential. Two male ‘dose leader’ subjects (1 active : 1 placebo) were dosed first in each cohort. The remainder of the cohort (5 active : 1 placebo) were dosed 24 h later. Dose cohorts were 2, 5, 10, 18, 25 and 35 mg. Safety, pharmacokinetic and pharmacodynamic assessments were made at pre‐determined time‐points during each part of the study. Dose escalation was dependent upon satisfactory review of the blinded safety (up to Day 6) and pharmacokinetic (up to 24 h post‐dose) data from the preceding cohort.
Laboratory evaluation of clinical safety parameters was carried out using standard validated methods. Measurement of plasma pharmacodynamic markers [adrenocorticotropic hormone (ACTH), cortisol, 4‐androstenedione, testosterone and dehydroepiandrosterone sulphate (DHEA‐s)] was carried out using commercially available kits. Each method was fully validated prior to analysis. Urinary steroid metabolites were measured according to established methods (Boonen et al., 2013). UE2343 levels in plasma, urine and CSF was determined by LC–MS/MS using fully validated methods.
The data and statistical analysis comply with the recommendations on experimental design and analysis in pharmacology (Curtis et al., 2015). Levels of probability, P < 0.05 were deemed to constitute the threshold for statistical significance. Pharmacokinetic parameters, except Tmax (time of maximum observed drug concentration), are given as mean ± coefficient of variation (CV%). Tmax is given as median ± range. For each of the pharmacodynamic parameters [ACTH, cortisol, adrenal androgens, tetrahydrocortisols (THFs)/tetrahydrocortisone (THE) ratio], the maximum % change from baseline for each subject was subjected to ANOVA. For selected data, an additional covariate factor for the baseline was also included in the ANOVA/analysis of covariance (ANCOVA) model. Associated P‐values <0.05 for each comparison have been presented.

CYP2C9 = target: T1, CYP2C9 (Homo sapiens, UniProt P11712); test: Cytochrome P450 inhibition, CYP2C9; format: in vitro ADME; conditions: human liver microsomes; read-out: CYP450 isoform 2C9 IC50
T1 construct: tissue Cyprotex Discovery Limited; host or cells: human liver microsomes
T1 sequence (P11712 whole entry, canonical isoform): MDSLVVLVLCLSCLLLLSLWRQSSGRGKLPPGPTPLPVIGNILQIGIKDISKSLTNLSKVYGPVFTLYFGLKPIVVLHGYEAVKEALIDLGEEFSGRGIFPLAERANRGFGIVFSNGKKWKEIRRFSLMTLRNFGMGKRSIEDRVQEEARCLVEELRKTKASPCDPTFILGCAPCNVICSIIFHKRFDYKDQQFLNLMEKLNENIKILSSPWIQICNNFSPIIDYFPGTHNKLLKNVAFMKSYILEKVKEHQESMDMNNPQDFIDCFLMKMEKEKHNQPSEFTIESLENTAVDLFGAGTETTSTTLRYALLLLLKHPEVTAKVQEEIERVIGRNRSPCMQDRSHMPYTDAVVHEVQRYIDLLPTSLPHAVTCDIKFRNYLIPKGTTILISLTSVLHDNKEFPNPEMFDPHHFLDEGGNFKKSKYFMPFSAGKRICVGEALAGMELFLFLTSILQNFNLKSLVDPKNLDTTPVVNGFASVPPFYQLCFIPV
Experimental: (§1) Testing was performed by Cyprotex Discovery Limited, Cheshire, UK. Six test compound concentrations (0.4, 1, 4, 10, 40 and 100 μM; final DMSO concentration 0.25%, final microsome concentration 0.25 mg·mL^−1) were either pre‐incubated for 30 min in the absence and presence of NADPH or underwent a 0 min pre‐incubation with human liver microsomes. At the end of the pre‐incubation period, the probe substrate for each cytochrome P450 (CYP450) isoform (30 μM) and NADPH (1 mM) were then added (final DMSO concentration 0.3%), and the samples were incubated for 5 min at 37°C. Probe substrates were as follows: 1A2 – phenacetin, 2C9 – diclofenac, 2C19 – mephenytoin, 2D6 – dextromethorphan, 3A4 – midazolam and testosterone. Samples were subjected to LC–MS/MS analysis to determine metabolite concentrations. A decrease in the formation of the metabolite compared with vehicle control was used to calculate an IC50 value (test compound concentration which produces 50% inhibition) for each experimental condition.

CYP2C19 = target: T2, CYP2C19 (Homo sapiens, UniProt P33261); test: Cytochrome P450 inhibition, CYP2C19; format: in vitro ADME; conditions: human liver microsomes; read-out: CYP450 isoform 2C19 IC50
T2 construct: tissue Cyprotex Discovery Limited; host or cells: human liver microsomes
T2 sequence (P33261 whole entry, canonical isoform): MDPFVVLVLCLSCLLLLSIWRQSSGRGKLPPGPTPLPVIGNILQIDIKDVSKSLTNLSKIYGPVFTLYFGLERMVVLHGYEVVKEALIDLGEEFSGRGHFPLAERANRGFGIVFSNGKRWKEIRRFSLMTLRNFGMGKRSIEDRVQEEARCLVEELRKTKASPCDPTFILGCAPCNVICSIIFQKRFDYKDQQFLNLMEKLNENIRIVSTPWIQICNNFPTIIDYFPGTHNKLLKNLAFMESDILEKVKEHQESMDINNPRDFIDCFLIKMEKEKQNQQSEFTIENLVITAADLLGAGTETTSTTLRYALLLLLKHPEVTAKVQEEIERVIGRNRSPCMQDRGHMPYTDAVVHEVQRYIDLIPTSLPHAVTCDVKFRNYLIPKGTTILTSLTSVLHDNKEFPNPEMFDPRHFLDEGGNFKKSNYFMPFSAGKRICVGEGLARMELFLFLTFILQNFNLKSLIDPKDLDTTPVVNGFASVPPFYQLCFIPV
Experimental: as §1

[2] = Tissue exposure measurements in rats (plasma and brain); format: in vivo; conditions: rat
Experimental: The circulating plasma levels and tissue distribution of compounds were determined according to the method described in WO2011135276 (Webster et al., 2011a). Animals were group‐housed, had free access to food and water and were maintained in accordance with UK Home Office regulations. The animal work was conducted under UK Home Office Project Licence no. PPL 60/3915.
Compounds were prepared in 0.9% saline containing 2% DMSO (v^.v^‐1) and 38% PEG400 (v^.v^‐1) and administered to male Sprague Dawley rats by oral gavage such that the final concentration of compound was 10 mg·kg^−1. Rats (n = 3 per time point) were killed by decapitation at 1, 4 and 6 h post dosing, and trunk blood and tissues (liver, adipose and brain) were excised. Blood samples at 0.5 and 2 h post dosing were taken by a tail nick from the 4 and 6 h rats respectively.
Compounds were triple extracted from plasma (prepared from blood by a high speed centrifugation step) and spiked with 1 μg of a standard compound using ethyl acetate. Extracts were dried under nitrogen and re‐suspended in 60% methanol/40% ammonium acetate (5 mM).
A known weight of tissue was homogenized in 3 volumes of Krebs buffer. The compound was triple extracted with ethyl acetate from the supernatant of a low speed spin spiked with […] of a standard compound. Extracts were dried under nitrogen and re‐suspended in 60% methanol/40% ammonium acetate (5 mM).
Samples from plasma and tissue were analysed by TSQ Quantum Discovery Tandem Mass Spectrometer and Surveyor Liquid Chromatogram (Thermo, Hemel‐Hempstead, UK). Then 10 μL of each sample was injected in a mobile phase consisting of 60% methanol/40% ammonium acetate (5 mM) at a flow rate of 0.5 mL·min^−1. The column used was a BDS hypersil C18, 50 × 2.1 mm with a 5 μm particle size.
Each compound was tuned with a spray voltage of 3000 V and a capillary temperature of 300°C, and values for tube lens, CID and product ions were determined. The peak area for each compound and for the internal standard was determined, and the concentration of compound ^. g^‐1 of tissue or mL^‐1 of plasma was calculated by comparison of the peak area ratio to a standard curve.

[3] = single oral dose 10 mg, mean (CV%)
[4] = single oral dose 18 mg, mean (CV%)
[5] = single oral dose 25 mg, mean (CV%)
[6] = single oral dose 35 mg, mean (CV%)

half-life ([1]; oral, single doses, range across doses): 10.5 to 18.7 h
Cmax [1, 3]: 0.0404 µg/mL
half-life [1, 3]: 18.7 h
Tmax ([1]; single oral dose 10 mg): 3.5 h
Cmax [1, 4]: 0.136 µg/mL
half-life [1, 4]: 13.6 h
Tmax ([1]; single oral dose 18 mg): 4 h
Cmax [1, 5]: 0.278 µg/mL
half-life [1, 5]: 10.5 h
Tmax ([1]; single oral dose 25 mg): 4 h
Cmax [1, 6]: 0.329 µg/mL
half-life [1, 6]: 11.4 h
Tmax ([1]; single oral dose 35 mg): 4 h
CL renal ([1]; oral, single doses, read-out: renal clearance (CLR)): < 2.17 mL/min
CL renal ([1]; single oral dose 10 mg, mean (CV%), read-out: CLR (renal clearance) (converted)): 1.17 mL/min
CL renal ([1]; single oral dose 18 mg, mean (CV%), read-out: CLR (renal clearance) (converted)): 2.67 mL/min
CL renal ([1]; single oral dose 25 mg, mean (CV%), read-out: CLR (renal clearance) (converted)): 2.17 mL/min
CL renal ([1]; single oral dose 35 mg, mean (CV%), read-out: CLR (renal clearance) (converted)): 2 mL/min
Urinary excretion, % of the respective doses ([1]; single doses): ≤ 1.8%
Plasma levels ([1]; single doses of 2 and 5 mg, in words): below the level of quantification
AUC0‐t [1, 3]: 550 (90%) ng^.h·mL^−1
AUC0‐∞ [1, 3]: 856 (70%) ng^.h·mL^−1
Oral clearance [1, 3]: 18.5 (75%) L·h^−1
AUC0‐t [1, 4]: 2291 (87%) ng^.h·mL^−1
AUC0‐∞ [1, 4]: 2581 (84%) ng^.h·mL^−1
Oral clearance [1, 4]: 14.5 (90%) L·h^−1
AUC0‐t [1, 5]: 3486 (39%) ng^.h·mL^−1
AUC0‐∞ [1, 5]: 3825 (35%) ng^.h·mL^−1
Oral clearance [1, 5]: 7.32 (38%) L·h^−1
AUC0‐t [1, 6]: 4016 (30%) ng^.h·mL^−1
AUC0‐∞ [1, 6]: 4261 (29%) ng^.h·mL^−1
Oral clearance [1, 6]: 8.78 (28%) L·h^−1
IC50 (CYP2C9): > 50 µM
IC50 (CYP2C19): 1.7 µM
Kp ([2]; male, Sprague Dawley, brain (relative to free plasma), oral, 10 mg·kg^−1, rat plasma protein binding taken into account, read-out: brain : plasma free ratio): 0.43
Kp ([2]; male, Sprague Dawley, brain and plasma, 10 mg·kg^−1 oral gavage, read-out: Brain : plasma ratio): 0.11
Cmax ([2]; male, Sprague Dawley, plasma, po, 10 mg/kg, 10 mg·kg^−1 oral gavage, mean ± SD): 1.54 ± 0.657 µg/mL
level in brain as % of the free plasma concentration [2]: 43%
Brain Cmax ([2]; 10 mg·kg^−1 oral gavage, mean ± SD): 0.173 ± 0.08 µg/mL
SMILES: O=C(c1csc(-c2cn[nH]c2)c1)N1C2CCC1CC(O)(c1ncccn1)C2 (centres unmarked) [compound 4]
Ae(0–120h) (%) [1, 3]: 0.53 (85%)
Ae(0–120h), amount excreted in urine [1, 3]: 52.5 (85%) μg
Ae(0–120h) (%) [1, 4]: 1.67 (66%)
Ae(0–120h), amount excreted in urine [1, 4]: 300 (66%) μg
Ae(0–120h) (%) [1, 5]: 1.75 (37%)
Ae(0–120h), amount excreted in urine [1, 5]: 438 (37%) μg
Ae(0–120h) (%) [1, 6]: 1.43 (15%)
Ae(0–120h), amount excreted in urine [1, 6]: 501 (15%) μg
